# Laboratory results taken from US20200399238A1, “THERAPEUTIC AURONES” (MIDDLE TENNESSEE STATE UNIVERSITY, priority 2016, published 2020).
# Where two headings read alike, the source gives them in different places.
# How the values were obtained:
# [1] = tested on: Leishmania amazonensis promastigotes expressing beta-lactamase; assay: microbe, parasite or virus in culture; type: cell-based; conditions: for IC50: Leishmania amazonensis, read-out: IC50 L. amaz.
# [2] = tested on: Trypanosoma brucei brucei 427 cells; assay: T. brucei culture and assay (PrestoBlue); type: cell-based
# [3] = tested on: Trypanosoma cruzi Tulahuen cells expressing beta-galactosidase; assay: T. cruzi intracellular assay (beta-galactosidase, L6 host cells); conditions: for Selectivity L6/TC-I: Table 3A; for Selectivity L6/TC-I / Selectivity L6/Tc-I: estimated from highest L6 dose tested where no L6 IC50; for IC50: Trypanosoma cruzi, TULAHUEN; for Selectivity L6/Tc-I: Table 3B
# [4] = tested on: rat skeletal muscle cell line, L6; assay: cells; type: cell-based
# [5] = Table 2, L6 IC50 / L. amazonensis IC50
# [6] = Table 2, mean of 2(+) independent trials, read-out: IC50 T. brucei
# [7] = Trypanosoma brucei, Table 1, mean of 2(+) independent trials, read-out: IC50 T. brucei
# [8] = read-out: IC50 T. cruzi, Table 1, intracellular assay, mean of 2(+) trials (^c one trial)
# [9] = read-out: IC50 T. cruzi, Table 2, intracellular assay, mean of 2(+) independent trials
# [10] = read-out: IC50 TC-I, Table 3A, weighted means of two or more independent trials
# [11] = Rattus norvegicus, Table 1, read-out: IC50 Toxicity (L6)
# [12] = Rattus norvegicus, Table 3A, weighted means of two or more independent trials, read-out: IC50 L6
# [13] = Table 2, L6 mammalian cells, read-out: IC50 Toxicity (L6)
# [14] = Table 1, intracellular T. cruzi IC50
# [15] = Table 2, L6 IC50 / T. cruzi IC50 (intracellular assay)
# [16] = read-out: IC50 TC-I, Table 3B, weighted means of two or more independent trials
# [17] = Rattus norvegicus, Table 3B, weighted means of two or more independent trials, read-out: IC50 L6
# [18] = Trypanosoma brucei, read-out: T. brucei IC50 dose
Compound,IC50 [1],Selectivity L6/La ([1]; Table 1),"IC50 [2, 7]",melting point,"IC50 [3, 8]","IC50 [3, 9]","IC50 [4, 11]","IC50 [3, 16]","IC50 [4, 17]",also measured
"O=C1/C(=C/c2cccc(F)c2)Oc2ccccc21 [Aurone 9024, (Z)-2-(3-fluorobenzylidene)benzofuran-3(2H)-one]",20.1 µM,>4.98,> 50 µM,111 to 113 °C,6.67 µM,6.67 µM,> 100 µM,,,"Selectivity L6/La [1, 5]: >4.98; IC50 [2, 6]: > 50 µM; Selectivity L6/TC-I [3]: 14.99; IC50 [3, 10]: 6.67 µM; IC50 [4, 12]: > 100 µM; IC50 [4, 13]: > 100 µM"
"O=C1/C(=C/c2cccc(Cl)c2)Oc2ccccc21 [Aurone 9026, (Z)-2-(3-chlorobenzylidene)benzofuran-3(2H)-one]",12.6 µM,6.15,27.4 µM,86 to 89 °C,11 µM,,77.5 µM,,,"Selectivity L6/Tb ([2]; Table 1): 2.83; Selectivity L6/Tb ([2]; Table 3A, estimated from highest L6 dose tested where no L6 IC50): 2.83; Selectivity L6/Tc [3, 14]: 7.07; Selectivity L6/TC-I [3]: 7.07; IC50 [3, 10]: 11 µM; IC50 [4, 12]: 77.5 µM"
"O=C1/C(=C/c2cccc(I)c2)Oc2ccccc21 [Aurone 9028, (Z)-2-(3-iodobenzylidene)benzofuran-3(2H)-one]",2.61 µM,>38.31,> 50 µM,99 to 105 °C,7.54 µM,7.54 µM,> 100 µM,,,"Selectivity L6/La [1, 5]: >38.31; IC50 [2, 6]: > 50 µM; Selectivity L6/Tc [3, 14]: >13.26; Selectivity L6/Tc [3, 15]: >13.26; Selectivity L6/TC-I [3]: >13.26; IC50 [3, 10]: 7.54 µM; IC50 [4, 12]: > 100 µM; IC50 [4, 13]: > 100 µM"
"O=C1/C(=C/c2ccc(I)cc2)Oc2ccccc21 [Aurone 9029, (Z)-2-(4-iodobenzylidene)benzofuran-3(2H)-one]",3.11 µM,>32.15,> 50 µM,176 to 179 °C,11.1 µM,11.1 µM,> 100 µM,,,"Selectivity L6/La [1, 5]: >32.15; IC50 [2, 6]: > 50 µM; Selectivity L6/Tc [3, 14]: >9.04; Selectivity L6/Tc [3, 15]: >9.04; Selectivity L6/TC-I [3]: >9.04; IC50 [3, 10]: 11.1 µM; IC50 [4, 12]: > 100 µM; IC50 [4, 13]: > 100 µM"
"COC(=O)c1ccc(/C=C2\Oc3ccccc3C2=O)cc1 [Aurone 9047, Methyl (Z)-4-((3-oxobenzofuran-2(3H)-ylidene)methyl)benzoate]",24.2 µM,>4.13,> 50 µM,144 to 147 °C,> 50 µM,,> 100 µM,,,"IC50 [3, 10]: > 50 µM; IC50 [4, 12]: > 100 µM"
"O=C1/C(=C/c2cc(Br)c(Br)s2)Oc2ccccc21 [Aurone 9050, (Z)-2-((4,5-dibromothiophen-2-yl)methylene)benzofuran-3(2H)-one]",9.24 µM,,> 50 µM,185 to 190 °C,> 50 µM,> 50 µM,> 100 µM,> 50 µM,> 100 µM,
"O=C1/C(=C/c2ccccn2)Oc2ccccc21 [Aurone 9051, (Z)-2-(pyridin-2-ylmethylene)benzofuran-3(2H)-one]",6.26 µM,,23.2 µM,119 to 121 °C,19.4 µM,19.4 µM,79.6 µM,19.4 µM,79.6 µM,"IC50 [2, 18]: 23.2 µM"
"COc1cc(Br)c(/C=C2\Oc3ccccc3C2=O)cc1OC [Aurone 9056, (Z)-2-(2-bromo-4,5-dimethoxybenzylidene)benzofuran-3(2H)-one]",1.83 µM,,21.9 µM,144 to 147 °C,36 µM,36 µM,> 100 µM,,,
"Cc1ccccc1/C=C1\Oc2ccccc2C1=O [Aurone 9057, (Z)-2-(2-methylbenzylidene)benzofuran-3(2H)-one]",< 1 µM,,24.4 µM,89 to 93 °C,26.3 µM,26.3 µM,99.6 µM,,,
"O=C1/C(=C/c2ccc(Br)s2)Oc2ccccc21 [Aurone 9058, (Z)-2-((5-bromothiophen-2-yl)methylene)benzofuran-3(2H)-one]",2.73 µM,29.05,> 50 µM,155 to 158 °C,34.8 µM,34.8 µM,79.3 µM,34.8 µM,79.3 µM,"Selectivity L6/La [1, 5]: 29.05; IC50 [2, 6]: > 50 µM; Selectivity L6/Tc [3, 14]: 2.28; Selectivity L6/Tc [3, 15]: 2.28; Selectivity L6/Tc-I [3]: 2.28"
"Cc1[nH]cnc1/C=C1\Oc2ccccc2C1=O [Aurone 9059, (Z)-2-((5-methyl-H-imidazol-4-yl)methylene)benzofuran-3(2H)-one]",3.96 µM,80.99,> 50 µM,180 to 183 °C,5.25 µM,5.25 µM,321 µM,5.25 µM,321 µM,"Selectivity L6/La [1, 5]: 80.99; IC50 [2, 6]: > 50 µM; IC50 [2, 18]: > 50 µM; selectivity for T. cruzi (L6/Tc) [3]: 61.09; Selectivity L6/Tc [3, 14]: 61.09; Selectivity L6/Tc [3, 15]: 61.09; Selectivity L6/Tc-I [3]: 61.09; IC50 ([3]; read-out: T. cruzi IC50 dose): 5.25 µM"
O=C1/C(=C/c2sccc2Br)Oc2ccccc21 [Aurone 9060],1.36 µM,,> 50 µM,176 to 180 °C,34.6 µM,34.6 µM,> 100 µM,34.6 µM,> 100 µM,
"O=C1/C(=C/c2cc(Br)cs2)Oc2ccccc21 [Aurone 9061, (Z)-2-((4-bromothiophen-2-yl)methylene)benzofuran-3(2H)-one]",1.7 µM,,> 50 µM,125 to 129 °C,> 50 µM,> 50 µM,> 100 µM,> 50 µM,> 100 µM,
"O=C1/C(=C/c2cccc3[nH]ccc23)Oc2ccccc21 [Aurone 9063, (Z)-2-((1H-indol-4-yl)methylene)benzofuran-3(2H)-one]",1.13 µM,,> 50 µM,230 to 238 °C,18.9 µM,18.9 µM,94 µM,18.9 µM,94 µM,
"O=C1/C(=C/c2ccc(CO)o2)Oc2ccccc21 [Aurone 9067, (Z)-2-((5-(hydroxymethyl)furan-2-yl)methylene)benzofuran-3(2H)-one]",< 1 µM,,34.9 µM,61 to 63 °C,12.5 µM,12.5 µM,31.1 µM,12.5 µM,31.1 µM,"IC50 ([3]; read-out: T. cruzi IC50 dose): 12.5 µM; IC50 ([4]; Rattus norvegicus, read-out: toxicity in L6): 31.1 µM"
"O=C1/C(=C/c2ccc(O)cc2)Oc2ccccc21 [Aurone 9068, (Z)-2-(4-hydroxybenzylidene)benzofuran-3(2H)-one]",1.57 µM,,> 50 µM,258 to 260 °C,> 50 µM,> 50 µM,> 200 µM,,,
"N#Cc1cccc(/C=C2\Oc3ccccc3C2=O)c1 [Aurone 9070, (Z)-3-((3-oxobenzofuran-2(3H)-ylidene)methyl)benzonitrile]",< 1 µM,,34.7 µM,175 to 177 °C,16.7 µM,16.7 µM,> 200 µM,,,
